Assay: Inhibition of yeast alpha-D-glucosidase

## O=C1CNC[C@@H]1O
  IC50: 150 µM

## O[C@H]1[C@H](O)CN[C@H]1O
  Ki: 2 µM

## OC[C@H]1NC(O)[C@H](O)[C@@H](O)[C@@H]1O (stereo partly drawn) [NOJIRIMYCIN]
  Ki: 6.3 µM

From BindingDB's records for doi:10.1016/j.bmc.2007.03.073 (University of Upper Alsace, 2007)
